# Earlier results in patent US20100003344A1, “Cosmetic Skincare Method Employing Mechanical Stresses” (L'OREAL, priority 2005, published 2010).
# Read-outs that look alike come from different tables or passages of the source. Ends that are not written are not given here.
# What was measured:
# β1 integrins [1] = conditions: applied to the skin ex vivo
# beta1 integrins = conditions: stated as known
# [2] = tested on: α2, α3, α6, αv and β1 integrins; conditions: keratinocytes in culture or in reconstructed skins
# β1 integrins [3] = conditions: cells in culture
# β1 integrins [4] = tested on: β1 integrins
Substance,number of mechanoreceptors (beta1 integrins) on the surface of the keratinocytes (beta1 integrins),"expression of integrins, in particular the α2, α3, α6, αv and β1 integrins [2]",further results
GPQGPQ [COLLAXYL],,,expression of β1 integrins (β1 integrins [1]): stimulates the expression of β1 integrins
manganese gluconate,increase the number of mechanoreceptors,capable of increasing the expression of integrins,
KLDAPT [VINCI 02],increase the number of mechanoreceptors,,expression of β1 integrins (β1 integrins [3]): stimulates the expression of β1 integrins
RDFTKATNIRLRFLR [VINCI 01],,,expression of β1 integrins (β1 integrins [4]): stimulates the expression of β1 integrins
copper gluconate,,capable of increasing the expression of integrins,
zinc gluconate,,capable of increasing the expression of integrins,
